Data from patent publication US4762828A, “1,2,4-triazolo[4,3-d]-4-azatricyclo-[4.3.1.1^3,8 ]undecane and 3-substituted derivatives, and intermediates thereof” (Pennwalt Corporation, priority 1987, dated 1988).

Legend:
[1] = test system: carrageenan-induced rat paw edema; test: carrageenan-induced rat paw edema assay (anti-inflammatory activity); format: in vivo, male Sprague Dawley rats; details: for % Inhibition: oral, control 63.9% edema; for anti-inflammatory activity (in words): administered orally
Protocol: Anti-inflamatory activity was determined by carragenaninduced paw edema of laboratory rats. Groups of six male Sprague Dawley rats orally received compound suspended in a 1% aqueous solution of Methocel brand methylcellulose. Control rats received a 0.5% aqueous solution of Methocel only. Two hours later, each rat received a subcutaneous injection of 0.1 ml of a 1% homogenized suspension of carrageenan in the plantar surface of the right hind paw.
Immediately, the volume of the paw was measured by immersing it in mercury to above the lateral mateolus. The mercury in a glass cylinder 25 mm in diameter and 60 mm deep was connected at the bottom on the cylinder by a column of water to a Statham transducer (model P23BB), range 0-5 cm of mercury pressure. The volume was recorded electronically on a Beckman recorder, R511. Three hours later, the inflamed paw volume was measured again, and the change in volume was recorded for each group. Indomethacin,a known anti-inflamatory agent, was included as a standard.

mice [2] = test: estimated LD50; details: ip
mice [3] = test: antihypoxia test: survival duration of mice in a normobaric atmosphere of 96% nitrogen and 4% oxygen at 35° C; format: in vivo; details: for Survival Minutes, Compound: N=5, 35° C.
Protocol: N^1 = Number of mice in each group
NS = Not significant, P >0.05
ip = intraperitoneal administration
iv = intravenous administration
The antihypoxia test measures the survival duration of mice in a normobaric atmosphere consisting of 96% nitrogen and 4% oxygen, at 35° C. The mice are considered dead when they stop visible respiration. The test indicates potential clinical utility in situations of central nervous system hypoxia, such as occurs following stroke, cardiac arrest, and traumatic accidents.

minimal neurotoxic dose = test: minimal neurotoxic dose; design: species or system mice; details: mouse, in vivo, ip

Row | SMILES | % Inhibition ([1]; 25.0 mg/kg) | % Inhibition ([1]; 50.0 mg/kg, Hydroiodide) | % Inhibition ([1]; 100.0 mg/kg) | anti-inflammatory activity (in words) [1] | Estimated LD50 (mice [2]) | % Inhibition ([1]; 50.0 mg/kg) | Survival Minutes, Compound (mice [3]; 1 mg/kg iv, control 2.36, P NS) | Survival Minutes, Compound (mice [3]; 1.5 mg/kg iv, control 2.30, P NS) | prolonged the survival time of mice in the antihypoxia test (mice [3]; 6 mg/kg (i.p.)) | Survival Minutes, Compound (mice [3]; 6 mg/kg ip, control 2.08, P =0.04) | minimal neurotoxic dose (minimal neurotoxic dose) | % Inhibition ([1]; 4.0 mg/kg)
1 | c1nnc2n1C1CC3CC(CC2C3)C1 [Example 1, 1,2,4-Triazolo[4,3-d]-4-azatricyclo[4.3.1.1^3,8]undecane Hydroiodide] | 17.0% | 43.4% | 56.6% | demonstrated activity | – | – | – | – | – | – | – | –
2 | c1nnc2n1C1CC3CC(CC2C3)C1 [Example 2, 1,2,4-Triazolo[4,3-d]-4-azatricyclo[4.3.1.1^3,8]undecane] | 17.0% | – | – | demonstrated activity | 12 mg/kg | 28.3% | 2.34 min | 3.02 min | more than 2 fold | 5.78 min | 6 mg/kg | –
3 | COc1ccc2c(c1)c(CC(=O)O)c(C)n2C(=O)c1ccc(Cl)cc1 [Indomethacin, reference compound] | – | – | – | – | – | – | – | – | – | – | – | 52.8%
